Assay results: US11427548B2 (Arvinas Operations, Inc., priority 2015, dated 2022)
Like-named read-outs stand apart in the source and are kept apart here.

Legend:
Format in all cases: cell-based
Androgen Receptor [1] = target: T1, Androgen Receptor (Homo sapiens, UniProt P10275); test: Androgen Receptor ELISA assay (PathScan AR ELISA) in VCaP cells: AR degradation, Dmax and DC50
T1 construct: endogenous in cells; host or cells: VCaP cells
T1 sequence (P10275 1-920): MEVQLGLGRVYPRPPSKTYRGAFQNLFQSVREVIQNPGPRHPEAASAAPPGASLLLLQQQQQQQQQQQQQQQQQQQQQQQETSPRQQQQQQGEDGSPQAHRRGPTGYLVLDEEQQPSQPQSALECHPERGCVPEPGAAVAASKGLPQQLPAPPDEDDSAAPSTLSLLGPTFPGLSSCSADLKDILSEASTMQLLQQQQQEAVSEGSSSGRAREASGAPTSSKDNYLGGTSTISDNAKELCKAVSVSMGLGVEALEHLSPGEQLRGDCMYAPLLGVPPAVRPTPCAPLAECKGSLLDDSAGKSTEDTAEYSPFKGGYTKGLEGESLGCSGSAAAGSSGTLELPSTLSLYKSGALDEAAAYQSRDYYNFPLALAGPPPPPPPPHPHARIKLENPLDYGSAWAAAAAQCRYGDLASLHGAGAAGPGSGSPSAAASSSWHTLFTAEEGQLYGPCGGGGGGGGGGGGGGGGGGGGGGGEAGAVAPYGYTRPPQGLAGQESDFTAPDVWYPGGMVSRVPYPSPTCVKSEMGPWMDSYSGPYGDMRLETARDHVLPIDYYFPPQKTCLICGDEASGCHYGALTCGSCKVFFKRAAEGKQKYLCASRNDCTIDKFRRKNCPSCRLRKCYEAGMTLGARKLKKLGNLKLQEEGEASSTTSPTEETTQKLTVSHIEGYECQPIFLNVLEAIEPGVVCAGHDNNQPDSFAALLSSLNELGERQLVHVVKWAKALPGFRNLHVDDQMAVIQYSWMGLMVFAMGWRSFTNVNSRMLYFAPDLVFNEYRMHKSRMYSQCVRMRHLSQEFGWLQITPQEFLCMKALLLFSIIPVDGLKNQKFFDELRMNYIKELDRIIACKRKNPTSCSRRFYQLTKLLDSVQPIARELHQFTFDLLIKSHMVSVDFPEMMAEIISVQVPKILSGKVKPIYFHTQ
Procedure, shortened: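 After 24 h exposure of VCaP cells (charcoal-stripped serum, 0.1 nM R1881 agonist, 0.1% DMSO) to seven half-log compound concentrations, residual AR in lysates was measured by PathScan ELISA (TMB absorbance, 450 nm). Cells were plated at 30,000/well and grown at least 3 days beforehand.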

Androgen Receptor [2] = target: T2, Androgen Receptor (Homo sapiens, UniProt P10275+P40337, T878A); test: Androgen Receptor ELISA assay (PathScan AR ELISA) in LNCaP cells: AR degradation, Dmax and DC50
T2 construct: Compounds have been evaluated in this assay in LNCaP and/or VCaP cells utilizing similar protocols; endogenous in cells; host or cells: LNCaP cells

VCaP cells = test: VCaP cell proliferation assay (Cell Titer Glo), GI50; settings: Homo sapiens; VCaP cells, 0.1 nM R1881; Table 37; read-out: GI50, Inhibition of VCaP Proliferation
Procedure: 2. VCaP Cell Proliferation Assay.
VCaP cells are plated 7,500/well 200 μL/well in VCaP assay medium [Phenol red free RPMI (Gibco Cat #11835-030); 5% Charcoal Stripped (Dextran treated) FBS (Omega Scientific, Cat #FB-04); Pen/Strep Life Technologies (Gibco Cat #: 10378-016); 0.1 nM R1881 (Sigma, Cat #R0908) is added upon the start of the assay, not during initial plating of the cells).
The assay was performed as follows: the cells are grown for a minimum of 3 days to deplete androgens; dosing of PROTACs and R1881 is performed as for AR ELISA; the baseline reading of Cell Titer Glo can be performed on day of dosing.
VCaP cells with 0.1 nM R1881 will double once in 4 days. Gently draw off 110 μL of media so as not to disturb the adherent cells; add 110 μL of CTG; incubate with slow shaking for 20 minutes; and read luminescence on a plate reader.

[3] = VCaP cells; concentration that caused 50% Androgen Receptor degradation; read-out: VCaP DC50
[4] = VCaP, VCaP cells; highest percentage of Androgen Receptor degradation; read-out: VCaP Dmax (%)
[5] = read-out: VCaP DC50; VCaP cells; concentration that caused 50% Androgen Receptor degradation

T2 sequence (P10275 whole entry T878A): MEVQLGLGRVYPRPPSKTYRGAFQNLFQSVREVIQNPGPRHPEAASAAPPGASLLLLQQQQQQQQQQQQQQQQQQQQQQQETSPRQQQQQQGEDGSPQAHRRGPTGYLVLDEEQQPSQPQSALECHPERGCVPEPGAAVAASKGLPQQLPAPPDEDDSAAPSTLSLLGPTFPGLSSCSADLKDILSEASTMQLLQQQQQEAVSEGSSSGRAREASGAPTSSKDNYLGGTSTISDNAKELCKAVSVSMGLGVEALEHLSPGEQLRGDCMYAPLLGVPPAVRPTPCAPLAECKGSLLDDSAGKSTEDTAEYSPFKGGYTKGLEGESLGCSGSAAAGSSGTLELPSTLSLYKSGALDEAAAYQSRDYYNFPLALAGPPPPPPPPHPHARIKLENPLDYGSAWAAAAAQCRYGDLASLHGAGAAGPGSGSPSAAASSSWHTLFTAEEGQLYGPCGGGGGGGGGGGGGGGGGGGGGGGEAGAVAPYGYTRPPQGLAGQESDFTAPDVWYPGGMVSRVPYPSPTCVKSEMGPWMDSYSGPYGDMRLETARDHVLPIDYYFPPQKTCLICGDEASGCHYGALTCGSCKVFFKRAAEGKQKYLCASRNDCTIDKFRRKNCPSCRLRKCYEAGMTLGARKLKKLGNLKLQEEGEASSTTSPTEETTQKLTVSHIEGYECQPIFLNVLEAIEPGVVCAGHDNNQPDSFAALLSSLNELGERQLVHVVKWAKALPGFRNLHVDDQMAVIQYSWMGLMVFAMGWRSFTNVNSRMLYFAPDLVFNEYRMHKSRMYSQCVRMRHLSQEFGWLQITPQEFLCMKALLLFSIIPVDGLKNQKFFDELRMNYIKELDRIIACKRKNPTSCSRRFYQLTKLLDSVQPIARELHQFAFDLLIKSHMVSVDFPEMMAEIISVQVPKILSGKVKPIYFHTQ
T2 sequence (P40337 whole entry): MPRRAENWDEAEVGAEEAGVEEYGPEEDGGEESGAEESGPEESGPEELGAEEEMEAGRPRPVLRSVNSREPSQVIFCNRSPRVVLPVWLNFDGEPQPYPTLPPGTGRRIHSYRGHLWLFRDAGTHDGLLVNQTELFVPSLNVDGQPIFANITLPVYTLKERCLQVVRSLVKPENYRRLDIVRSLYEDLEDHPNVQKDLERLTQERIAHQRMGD
T2 sequence (Q15369 whole entry partner): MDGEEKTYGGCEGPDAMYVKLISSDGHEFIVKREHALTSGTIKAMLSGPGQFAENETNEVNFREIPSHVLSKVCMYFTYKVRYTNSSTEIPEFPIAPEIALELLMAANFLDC
T2 sequence (Q15370 whole entry partner): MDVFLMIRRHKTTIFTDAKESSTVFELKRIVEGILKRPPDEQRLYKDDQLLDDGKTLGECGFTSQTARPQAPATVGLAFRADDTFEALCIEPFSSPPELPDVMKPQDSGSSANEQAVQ

Compound	Dmax (Androgen Receptor [1]; VCaP, read-out: VCaP Dmax (%)) [%]	GI50 (VCaP cells) [nM]	DC50 (Androgen Receptor [1]; [3]) [nM]	Dmax (Androgen Receptor [1]; [4]) [%]	further results
Cc1ncsc1-c1ccc(CNC(=O)[C@@H]2C[C@@H](O)CN2C(=O)[C@@H](NC(=O)COCCCCOc2ccc(-c3ccc(N4C(=S)N(c5ccc(C#N)c(C(F)(F)F)c5)C(=O)C4(C)C)cc3)cc2)C(C)(C)C)cc1 [Example 75, (2S,4R)-1-[(2S)-2-(2-{4-[4-(4-{3-[4-cyano-3-(trifluoromethyl)phenyl]-5,5-dimethyl-4-oxo-2-sulfanylideneimidazolidin-1-yl}phenyl)phenoxy]butoxy}acetamido)-3,3-dimethylbutanoyl]-4-hydroxy-N-{[4-(4-methyl-1,3-thiazol-5-yl)phenyl]methyl}pyrrolidine-2-carboxamide]	> 71	51 to 250			DC50 (Androgen Receptor [1]; read-out: VCaP DC50; concentration that caused 50% Androgen Receptor degradation, VCaP cells): < 50 nM; DC50 (Androgen Receptor [2]; concentration that caused 50% Androgen Receptor degradation): < 50 nM; Dmax (Androgen Receptor [2]; highest percentage of Androgen Receptor degradation observed): > 71%
Cc1ncsc1-c1ccc(CNC(=O)[C@@H]2C[C@@H](O)CN2C(=O)[C@@H](NC(=O)COCc2ccc(Oc3ccc(C(=O)N[C@H]4C(C)(C)[C@H](Oc5ccc(C#N)c(Cl)c5)C4(C)C)cc3)cc2)C(C)(C)C)cc1 [Example 183, (2S,4R)-1-[(2S)-3,3-dimethyl-2-(2-{[4-(4-{[trans-3-(3-chloro-4-cyanophenoxy)-2,2,4,4-tetramethylcyclobutyl]carbamoyl}phenoxy)phenyl]methoxy}acetamido)butanoyl]-4-hydroxy-N-{[4-(4-methyl-1,3-thiazol-5-yl)phenyl]methyl}pyrrolidine-2-carboxamide]		≤ 50			Dmax (Androgen Receptor [1]; VCaP, highest percentage of Androgen Receptor degradation observed, VCaP cells (Table 32); read-out: VCaP Dmax (%)): > 71%
Cc1ncsc1-c1ccc([C@H](C)NC(=O)[C@@H]2C[C@@H](O)CN2C(=O)[C@@H](NC(=O)COCCCCOc2ccc(-c3ccc(N4C(=S)N(c5cnc(C#N)c(C(F)(F)F)c5)C(=O)C4(C)C)cc3)cc2)C(C)(C)C)cc1 [Example 194, (2S,4R)-1-[(2S)-2-(2-{4-[4-(4-{3-[6-cyano-5-(trifluoromethyl)pyridin-3-yl]-5,5-dimethyl-4-oxo-2-sulfanylideneimidazolidin-1-yl}phenyl)phenoxy]butoxy}acetamido)-3,3-dimethylbutanoyl]-4-hydroxy-N-[(1S)-1-[4-(4-methyl-1,3-thiazol-5-yl)phenyl]ethyl]pyrrolidine-2-carboxamide]		51 to 250	< 50	> 71	
Cc1ncoc1-c1ccc([C@H](C)NC(=O)[C@@H]2C[C@@H](O)CN2C(=O)[C@@H](NC(=O)COCCCCOc2ccc(-c3ccc(N4C(=S)N(c5cnc(C#N)c(C(F)(F)F)c5)C(=O)C4(C)C)cc3)cc2)C(C)(C)C)cc1 [Example 195, (2S,4R)-1-[(2S)-2-(2-{4-[4-(4-{3-[6-cyano-5-(trifluoromethyl)pyridin-3-yl]-5,5-dimethyl-4-oxo-2-sulfanylideneimidazolidin-1-yl}phenyl)phenoxy]butoxy}acetamido)-3,3-dimethylbutanoyl]-4-hydroxy-N-[(1S)-1-[4-(4-methyl-1,3-oxazol-5-yl)phenyl]ethyl]pyrrolidine-2-carboxamide]		51 to 250	< 50	> 71	
Cc1ncsc1-c1ccc(CNC(=O)[C@@H]2C[C@@H](O)CN2C(=O)[C@@H](NC(=O)COCCCCOc2ccc(-c3ccc(N4C(=S)N(c5cnc(C#N)c(C(F)(F)F)c5)C(=O)C4(C)C)c(F)c3)cc2)C(C)(C)C)cc1 [Example 197, (2S,4R)-1-[(2S)-2-(2-{4-[4-(4-{3-[6-cyano-5-(trifluoromethyl)pyridin-3-yl]-5,5-dimethyl-4-oxo-2-sulfanylideneimidazolidin-1-yl}-3-fluorophenyl)phenoxy]butoxy}acetamido)-3,3-dimethylbutanoyl]-4-hydroxy-N-{[4-(4-methyl-1,3-thiazol-5-yl)phenyl]methyl}pyrrolidine-2-carboxamide]		51 to 250	< 50	> 71	
Cc1ncsc1-c1ccc(CNC(=O)[C@@H]2C[C@@H](O)CN2C(=O)[C@@H](NC(=O)COCC2CC3(C2)CC(COc2ccc(N4C(=S)N(c5ccc(C#N)c(C(F)(F)F)c5)C(=O)C4(C)C)cc2)C3)C(C)(C)C)cc1 (stereo partly drawn) [Example 201, (2S,4R)-1-[(2S)-2-[2-({6-[(4-{3-[4-cyano-3-(trifluoromethyl)phenyl]-5,5-dimethyl-4-oxo-2-sulfanylideneimidazolidin-1-yl}phenoxy)methyl]spiro[3.3]heptan-2-yl}methoxy)acetamido]-3,3-dimethylbutanoyl]-4-hydroxy-N-{[4-(4-methyl-1,3-thiazol-5-yl)phenyl]methyl} pyrrolidine-2-carboxamide]	> 71	51 to 250			DC50 (Androgen Receptor [1]; [5]): < 50 nM
Cc1ncsc1-c1ccc([C@H](C)NC(=O)[C@@H]2C[C@@H](O)CN2C(=O)[C@@H](NC(=O)COCC2CC3(C2)CC(COc2ccc(N4C(=S)N(c5ccc(C#N)c(C(F)(F)F)c5)C(=O)C4(C)C)cc2)C3)C(C)(C)C)cc1 (stereo partly drawn) [Example 202, (2S,4R)-1-[(2S)-2-[2-({6-[(4-{3-[4-cyano-3-(trifluoromethyl)phenyl]-5,5-dimethyl-4-oxo-2-sulfanylideneimidazolidin-1-yl}phenoxy)methyl]spiro[3.3]heptan-2-yl}methoxy)acetamido]-3,3-dimethylbutanoyl]-4-hydroxy-N-[(1S)-1-[4-(4-methyl-1,3-thiazol-5-yl)phenyl]ethyl] pyrrolidine-2-carboxamide]	> 71	51 to 250			DC50 (Androgen Receptor [1]; [5]): < 50 nM
Cc1ncsc1-c1ccc(CNC(=O)[C@@H]2C[C@@H](O)CN2C(=O)[C@@H](NC(=O)COCCNc2ccc(-c3ccc(C(=O)NC4C(C)(C)C(Oc5ccc(C#N)c(Cl)c5)C4(C)C)cc3)cc2)C(C)(C)C)cc1 (stereo partly drawn) [Example 204, (2S,4R)-1-[(2S)-2-[2-(2-{[4-(4-{[3-(3-chloro-4-cyanophenoxy)-2,2,4,4-tetramethylcyclobutyl]carbamoyl}phenyl)phenyl]amino}ethoxy)acetamido]-3,3-dimethylbutanoyl]-4-hydroxy-N-{[4-(4-methyl-1,3-thiazol-5-yl)phenyl]methyl}pyrrolidine-2-carboxamide]		≤ 50	< 50	> 71	
